Measurements as given in patent US9062095B2, “Mutant double cyclized receptor peptides inhibiting β1-adrenoceptor antibodies” (JULIUS-MAXIMILIANS-UNIVERSTITAT-WURZBURG, priority 2007, dated 2015).
Positions of bridges follow the written chain, without caps; N, C: chain ends. Non-standard residues stand in square brackets, D forms with d.

Key:
anti-β1-ECII antibodies = assay: ELISA-competition assay: peptide preincubated with sera/IgG of immunized antibody-positive rats, linear 25AA Cys/Cys-peptide as antigen; format: binding, rat; design: blocking capacity (% of blocked versus non-blocked ELISA-reactivity): concentration or dose not given beside the values; settings: for blocking capacity (% of blocked versus non-blocked ELISA-reactivity): IgG from n=78 immunized antibody-positive rats, preincubation 12 h, mutants with D-Glu ring closure (FIG. 7); for blocking capacity (% of blocked versus non-blocked ELISA-reactivity) / blocking efficiency (% of blocked versus non-blocked ELISA reactivity) / blocking capacity (% of blocked versus non-blocked ELISA reactivity): ±SEM; for blocking efficiency (% of blocked versus non-blocked ELISA reactivity): type1 sera (93%, n=64 of 69), FIG. 9 upper panel; for blocking capacity (% of blocked versus non-blocked ELISA reactivity): type 2 sera (7%, n=5 of 69), FIG. 9 lower panel; for decrease in circulating free anti-beta1-ECII antibodies: n=6 sera (FIG. 11); for ability to significantly block antibody-binding to the β1-ECII-antigen: IgG-fractions from 12 rats, 18AA mutants with D-Glu ring closure (FIG. 4); for fraction of rat sera blocked by the peptide: n=82 sera, D-Glu ring closure (FIG. 8), Cys/Ser = blocked by it alone, Ser/Cys = sera blocked by both mutants
Method: FIG. 9 is a diagram composed of two major-(upper and lower) panels resuming the blocking effect of both 25AA- and 18AA-cyclopeptide mutants having a Gln closure site, as well as 18AA cyclopeptide mutants having a D-Glu closure site after preincubation (12 h, 4° C., rotating incubation) with sera isolated from 69 different immunized antibody-positive rats in an ELISA-competition assay using the 3 Cys-containing linear 25AA Cys/Cys-peptide as an antigen. The upper panel depicts rat sera preferentially reacting with the Cys/Ser mutated cyclopeptides (type1 reaction, n=64), separated in cyc25AA(Gln)-peptides (left) and cyc18AA(Gln and D-Glu)-peptides (right). The lower panel depicts the rat sera reacting with both the Cys/Ser and the Ser/Cys mutated cyclopeptides (type2 reaction, n=5), again separated in the results obtained with cyc25AA(Gln)-peptides (left) and cyc18AA(Gln and D-Glu)-peptides (right).
FIG. 11 is a diagram resuming the dose-dependent (x-axis, abscissa: fold molar excess of specific peptides) blocking capacity of various linear and cyclic beta1-ECII-peptides given in % of the unblocked antibody-titer (y-axis, ordinate), including 25AA Cys/Cys linear peptides (black squares), 25AA Cys/Ser cyclopeptide mutants (white squares), 18AA Cys/Cys cyclo-peptides (black diamonds), 18AA Cys/Ser cyclopeptide mutants (white diamonds), and 18AA Cys/Ser linear peptide mutants (vertically hatched diamonds) in an ELISA competition assay performed with sera from n=6 randomly chosen immunized antibody-positive rats.
FIGS. 27A and B depict the in vitro blocking (=neutralization) capacity of various cysteine-containing cyclopeptide variants of the second extracellular loop (ECII) of the human beta1-adrenergic receptor, determined by testing n=6 individual sera (27A) of immunized beta1-ECII-antibody-positive rats after over-night incubation with the indicated cyclopeptides (12-14 h, 4° C.) by ELISA. Columns in 27A represent the receptor-antibody blocking efficiency of the indicated cyclopeptides in % of the antibody-(ELISA-)signals obtained with unblocked antibody-positive rat sera. Columns in 27B represent the mean blocking efficiency for each cyclopeptide, error bars indicate ±SEM.
The blocking capacity of β1-ECII-18AA cyclopeptide mutants (Cys13-Ser14 or Ser13-Cys14 mutation having an additional D-Glu-Gln exchange, e.g. at the ring closure site) was compared with the 3 Cys-containing 25AA or 18AA Cys/Cys cyclopeptides after preincubation (12 h, 4° C., rotating incubation over-night) of different numbers of sera from immunized antibody-positive rats in an ELISA-competition assay using the 3 Cys-containing linear 25AA Cys/Cys-peptide as an antigen. FIGS. 4, 5, and 7-10 show the results from measurements performed with sera of n=12 up to n=82 immunized antibody-positive rats using different cyclopeptides of the present invention.

[1] = test system: beta1-receptor antibodies; assay: in vivo prevention study: five prophylactic peptide applications, serum antibody-titers by ELISA; design: species or system rat; settings: 1.0 mg/kg body weight i.v., 4-weekly, prevention protocol (FIG. 12)
Method: FIG. 12 is a diagram resuming the in vivo blocking capacity of in total five (prophylatic) applications of various linear and cyclic beta1-ECII-peptides, started 3 months after the first immunization (and two subsequent beta1-ECII/GST-antigen-boosts, corresponding to a prevention protocol). Serum-titers of the beta1-receptor antibodies were determined before and 18-20 h after each peptide injection (abscissa, time in months) and are given in % of the corresponding antibody-titers of immunized untreated rats (y-axis, ordinate). The injected peptides were: 25AA Cys/Cys linear peptide (black squares), […] (white squares), 18AA Cys/Cys cyclopeptide (black diamond), 18AA Cys/Ser cyclopeptide mutant (white diamonds), and the 18AA Cys/Ser linear peptide mutant (vertically hatched diamonds). […] Black circles indicate antibody-titers of untreated regularly (every 4 weeks) immunized animals serving as reference, set at 100%.
The in-vivo blocking effects of both 25AA and 18AA Cys/Ser mutant cyclopeptides (with a Gln closure site), the 18AA Ser/Cys mutant cyclopeptide, and a mutated linear 18AA Cys/Ser peptide were analyzed after intravenous (i.v.) injection of 1.0 mg/kg body weight (Bw) of each construct into freshly immunized antibody-positive rats (i.e., use of cyclo-peptides in a kind of “prevention” study), with a first cyclopeptide-application 3 months after the initial immunization (and two subsequent boost at months 2 and 3). In total, five prophylactic applications of the various constructs were given at 4-weekly intervals, always two weeks after the monthly continued antigen boost. Sera were drawn 18-20 hours after i.v. injection and assayed for reactivity by ELISA using the 3 Cys-containing linear 25AA Cys/Cys-peptide as an antigen (FIG. 12).

[2] = test system: anti-beta1-ECII antibody-secreting cells (ASC); assay: ELISPOT-assay with B-cells from bone marrow or spleen of prophylactically treated rats; format: in vivo, rat; settings: prophylactically treated versus untreated immunized rats, n=3-4 (FIG. 13)
Method: Cys/Ser, horizontally hatched columns). For the assays, ELIspot plates were coated overnight with the specific antigen (GST/beta1-ECII-FP) in 0.05 mol/1 Tris buffer, pH 9.4.; then the plates were washed 3 times and blocked with BSA for 3 hours at 37° C. Subsequently, the plates were incubated overnight at 37° C. with B-cells from either spleen or bone marrow (cultured in RPMI 1640/X-VIVO-15 medium supplemented with 10% fetal calf serum (FCS)) with 1×10^6 to 1×10^3 cells per well. After 12 hours the B-cells were discarded and the plates with the B-cell secreted IgG bound were washed several times (PBS/0.5° A) Tween) before the addition of alkaline phos-phatase conjugated secondary anti-rat IgG (0.3 μg/ml) to detect bound rat IgG. Then the plates were incubated for another 3 hours at 37° C., washed several times with PBS/0.5% Tween, and developed using LMP/BICP 5:1 (1 ml per well; “LMP” means low melting agarose, and “BICP” means 5-bromo-4-chloro-3-indolyl phosphate p-toluidine salt, a blue-colored dye) allowing for a quantification of the blue spots obtained, with each spot representing an antigen-specific IgG secreting spleen or bone-marrow cell.
This finding was confirmed by ELIspot analysis of bone marrow and spleen cell preparations of selected cyclopeptide-treated versus untreated immunized rats (n=3).

[3] = test system: antibody-induced cellular cAMP-production of HEK 293-β1 cells (β1-receptor-mediated signalling); assay: functional cAMP-assay by fluorescence resonance energy transfer (FRET); format: cell-based, human; settings: anti-β1-ECII IgG of a representative rat, preincubation 12 h, 4° C. (FIG. 6)
Method: FIG. 6 is a diagram depicting the blocking capacity of β1-ECII-18AA cyclopeptide mutants having a D-Glu ring closure on β1-receptor-mediated signalling (functional cAMP-assay) using an approach by fluorescence resonance energy transfer (FRET). The effect of the preincubation (12 h, 4° C., rotating incubator) of anti-β1-ECII IgG antibodies of a representative rat (serum) (FIG. 4, rat number 4) with β1-ECII-18AA-cyclopeptide mutants (Cys/Ser mutation, dark blue (3); Ser/Cys mutation, light blue (4)) was compared with the effect of a 3 Cys-containing 25AA Cys/Cys cyclopeptide (red (2)) or the result obtained with anti-β1-ECII IgG antibodies in the absence of blocking peptides (black (1)). The y-axis represents the normalized YFP/CFP-ratio of the registered FRET emission signals, the x-axis corresponds to the registration time given in seconds (s).
The blocking capacity of β1-ECII 25AA or 18AA cyclopeptide mutants (having a D-Glu/Gln at the ring closure site or not) on β1-receptor-mediated signalling (functional cAMP-assay) was assayed using an approach by fluorescence resonance energy transfer (FRET) (FIG. 6).
The effect of the pre-incubation (12 h, 4° C., rotating incubator) of anti-β1-ECII IgG antibodies of a representative rat with β1-ECII-18AA cyclopeptide mutants (Cys/Ser or Ser/Cys mutations, respectively) was compared with the inhibitory effect of a 3 Cys-containing 25AA Cys/Cys cyclopeptide or with the effect of anti-β1-ECII IgG antibodies not incubated with blocking peptides. The normalized YFP/CFP-ratio of the registered FRET emission signals served to quantify the effect of the cyclopeptide mutants of the present invention in terms of blockade (in percent) of antibody-induced cellular cAMP-production of transiently Epac1-transfected stably β1-AR expressing human embryonic kidney cells (HEK 293-β1 cells). The x-axis in FIG. 6 corresponds to the registration time given in seconds (s).

Substance | blocking capacity (% of blocked versus non-blocked ELISA-reactivity) (anti-β1-ECII antibodies; 4° C.) | blocking-efficiency versus unblocked sera (anti-β1-ECII antibodies; n=6 sera, incubation 12-14 h, 4° C., mean ±SEM (FIG. 27)) | blocking efficiency (% of blocked versus non-blocked ELISA reactivity) (anti-β1-ECII antibodies) | blocking capacity (% of blocked versus non-blocked ELISA reactivity) (anti-β1-ECII antibodies) | antibody-titer decrease after 5 injections, compared with untreated immunized animals [1] | number of specific anti-beta1-ECII antibody-secreting cells (ASC) in spleen and bone marrow [2] | decrease in circulating free anti-beta1-ECII antibodies (anti-β1-ECII antibodies; 8-fold molar excess of peptide) | decrease in circulating free anti-beta1-ECII antibodies (anti-β1-ECII antibodies; 20-fold molar excess of peptide) | decrease in circulating free anti-beta1-ECII antibodies (anti-β1-ECII antibodies; 80-fold molar excess of peptide) | inhibition of functional antibody-effects (blocking intracellular cAMP-increases) [3] | blocking effect compared with the 3 Cys-containing β1-ECII-18AA Cys/Cys cyclopeptide (anti-β1-ECII antibodies; IgG-fractions from 12 rats (FIG. 4)) | ability to significantly block antibody-binding to the β1-ECII-antigen (anti-β1-ECII antibodies) | blocking of receptor antibodies versus Ser/Cys counterpart or linear 25AA Cys/Cys peptide (anti-β1-ECII antibodies; dose-titration, two to eight-fold molar excess, one representative serum (FIG. 5)) | fraction of rat sera blocked by the peptide (anti-β1-ECII antibodies; listed as ECII-18AA Cys/Ser mutant) | fraction of rat sera blocked by the peptide (anti-β1-ECII antibodies; listed as β1-ECII-18AA Cys/Ser mutated cyclopeptide (D-Glu ring closure)) | fraction of rat sera blocked by the peptide (anti-β1-ECII antibodies; listed as 18AA Ser/Cys-mutants) | fraction of rat sera blocked by the peptide (anti-β1-ECII antibodies; listed as cyclic ECII-18AA Ser/Cys mutants)
25AA Cys/Cys cyclopeptides: 3 Cys-containing β1-ECII-25AA Cys/Cys cyclopeptide (β1-ECII-CP of WO 2006/103101) (cyclo(ARAESDEARRCYNDPKCCDFVTNRQ); disulfide (positions not given here)) [reference compound] | 67±2% | 73.4±5.0% | 65±2% | 72±5% | 87.7±2% | significant decrease | – | – | – | – | – | – | – | – | – | – | –
Ala-Asp-Glu-Ala-Arg-Arg-Cys-Tyr-Asn-Asp-Pro-Lys-Cys-Ser-Asp-Phe-Val-Gln (cyclo(ADEARRCYNDPKCSDFVQ); disulfide 7-13 (inferred)) [linear 18AA Cys/Ser peptides, reference compound] | – | – | – | – | 4.5±11% | no effect | 24% | 35% | about 50% | – | – | – | – | – | – | – | –
cyclo(Ala-Arg-Ala-Glu-Ser-Asp-Glu-Ala-Arg-Arg-Cys-Tyr-Asn-Asp-Pro-Lys-Ser-Cys-Asp-Phe-Val-Thr-Asn-Arg-Gln) (cyclo(ARAESDEARRCYNDPKSCDFVTNRQ); disulfide 11-18 (inferred)) [25AA Ser/Cys] | 6±2% | – | 6±2% | 37±7% | – | – | – | – | – | almost no inhibitory effect | – | – | – | – | – | – | –
cyclo(Ala-Asp-Glu-Ala-Arg-Arg-Cys-Tyr-Asn-Asp-Pro-Lys-Cys-Ser-Asp-Phe-Val-DGlu) (cyclo(ADEARRCYNDPKCSDFV[dE]); disulfide 7-13 (inferred)) | 69±2% | – | 69±2% | 47±5% | – | – | – | – | – | largely superior to its Ser/Cys counterpart, and even slightly more effective than a 3 Cys-containing 25AA Cys/Cys cyclopeptide | comparable or (in more than half of the sera analyzed n=8/12) was even more effective | able to significantly block | consistently largely superior | > 95% | About 95% | – | –
cyclo(Ala-Asp-Glu-Ala-Arg-Arg-Cys-Tyr-Asn-Asp-Pro-Lys-Ser-Cys-Asp-Phe-Val-DGlu) (cyclo(ADEARRCYNDPKSCDFV[dE]); disulfide 7-14 (inferred)) [18AA Ser/Cys with D-Glu-closure] | 1±2% | – | 1±2% | 33±5% | – | – | – | – | – | almost no inhibitory effect | – | not | – | – | – | about 5% | < 5%
